Read-outs that look alike come from different tables or passages of the source.
Columns and labels:
[1] = test system: mCherry-labeled U87 human osteosarcoma tumors; assay: In vivo accumulation of OG-labeled conjugates in tumors, confocal microscopy; design: species or system SCID mice; conditions: i.v., 50 μM-RGD; tumors removed one hour after injection; FIG. 17A
Description: SCID male were inoculated s.c. with 2×10^6 mCherry-labeled U87 human […] or with 5×10^6 mCherry-labeled MG-63 human osteosarcoma. […] One hour after injection, tumors were removed, dissected to thin slices and examined under Zeiss Meta LSM 510 confocal imaging system.
Cellular colocalization of OG labeled PGA-E-[c(RGDfk)2] (SEQ ID NO: 25) conjugate was monitored utilizing a Zeiss Meta LSM 510 confocal imaging systems with 40 oil objectives. All images were taken using a multi-track channel acquisition to prevent emission cross-talk between fluorescent dyes. Single XY, XZ plane-images were acquired in 1024×1024 resolution.

HUVEC [2] = assay: cells; format: cell-based, human
Protocol: (§1) The anti-angiogenesis and anti-proliferative activity of the conjugates described herein was evaluated by the effect of the conjugates on the proliferation of HUVEC, U87 and PANC02 cells.
(§2) HUVEC were plated onto 24-well plate (1×10^4 cells/well) in endothelial cell basal medium 2 (EBM-2; Cambrex, USA) supplemented with 5% fetal bovine serum (FBS). Following 24 hours of incubation (37° C.; 5% CO2) medium was replaced with Endothelial cell growth medium-2 (EGM-2; Cambrex, USA). U87 and PANC02 cells were plated onto 96 well plate (2×10^3 cells/well) in DMEM supplemented with 5% FBS and incubated for 24 hours (37° C.; 5% CO2). Following 24 hours of incubation the medium was replaced with DMEM containing 10% FBS. Cells were challenged with the tested compounds at serial concentrations for 72 hours. After incubation the number of HUVEC were counted by Coulter Counter and U87, and PANC02 cells were counted by XTT respectively.

αvβ3 integrin receptor = target: T1, αvβ3 integrin receptor (Homo sapiens, UniProt P05106+P06756); assay: αvβ3 interaction with fluorescently labeled conjugates in HUVEC; format: cell-based
T1 construct: endogenous in cells; host or cells: HUVEC
Protocol: A fluorescence probe, Oregon Green-cadaverine (OG), was conjugated to PGA conjugates through the free carboxylic groups (see Example 5 for synthesis description), in order to study the cellular uptake and trafficking.
HUVEC were plated onto 6 mm plates (5×10^5 cells/plate) in EBM-2 (Cambrex, USA) supplemented with 5% FBS. Following 24 hours of incubation (37° C.; 5% CO2), cells were challenged with either PGA-OG, PGA-c(RADfk)-OG (SEQ ID NO: 24) or PGA-E-[c(RGDfk)2]-OG (SEQ ID NO:25) diluted in EGM-2 medium for 5, 10, 15, 30 or 60 minutes. Cells were then washed in PBS (×3), harvested with PBS containing 2.5 mM EDTA and analyzed with the ImageStream 100 imaging flow cytometer (Amnis). Analysis was performed using IDEAS software.

HUVEC [3] = assay: Endothelial cell adhesion assay on fibrinogen coated plates; format: cell-based, human
Protocol: The ability of E-[c(RGDfk)2] and E-c(RGDfk) moieties (SEQ ID NOs: 2 and 41) in the conjugates to inhibit endothelial attachment to cellular matrix after conjugation, was assessed using an adhesion assay. Flat bottom 96-well culture plates (Nunc, Denmark) were coated with 0.5 μg/well fibrinogen overnight at 4° C. After washing three times with Phosphate buffered saline (PBS), the wells were blocked with 1% bovine serum albumin (BSA) for 1 hour at 37° C. and washed three times again with PBS. HUVEC were harvested in phosphate-buffered saline (137 mM NaCl, 2.7 mM KCl, 4.3 mM Na2HPO4, 1.4 mM KH2PO4, pH 7.3) with 2.5 mM EDTA and resuspended in EBM-2 serum-free media (Clonetics). HUVEC were incubated for 30 minutes, at room temperature, with the tested compounds. The treated HUVEC were plated at 5×10^4 cells per well and were allowed to attach for 1 hour at 37° C. After incubation, the unattached cells were removed by rinsing the wells with PBS. The attached cells were fixed with 3.7% formaldehyde, stained with 0.5% crystal violet and were imaged using Nikon TE2000E inverted microscope integrated with Nikon DS5 cooled CCD camera by 4× objective, brightfield technique. The number of attached cells was quantified with NIH ImageJ processing and analysis software. Non-specific binding was determined by adhesion of HUVEC cells, which were not incubated with any of the tested compounds, to BSA-coated plates.

Cathepsin B = Cathepsin B (Homo sapiens, UniProt P07858); assay: Release of PTX from conjugates in the presence of Cathepsin B; format: in vitro ADME
Protocol: The ability of Cathepsin B to cleave and therefore release PTX from PGA copolymer-E-c(RGDfk)2-PTX (SEQ ID NO:18) was assessed as follows:
Cathepsin B (5 U) was added last to a 1 ml solutions containing 3 mg of the tested conjugates and 20 mM sodium acetate, 2 mM EDTA and 5 mM DTT at a pH of 6 and at a temperature of 37° C. Solutions containing free PGA polymer and free PTX served as control. Sample aliquots (100 μl) were taken at various time points up to 72 hours, frozen and stored in liquid nitrogen, until assayed by HPLC (by Porous50 resin) and/or by Gel permeation chromatography (GPC; direct analysis of 50 μl aliquots). PGA polymer incubated in buffer alone (without addition of cathepsin B) served as an additional control to assess non-enzymatic hydrolytic cleavage. The amount of free PTX released from the tested compounds was assessed by HPLC (X=220 nm). Doxycycline was used as internal standard in all cases. In addition, an LC-MS analysis of the released compounds was also carried out to in order determine the major metabolites released. The MW of the conjugates was determined by diluting 50 μl aliquots of the conjugate containing solution to a final volume of 200 μl with PBS buffer and subjecting the aliquots to GPC analysis (Viscotek TDA detector).

HUVEC [4] = assay: Capillary-like tube formation assay; format: cell-based, human; conditions: equivalent concentrations of 10 nM (PTX) and 19 nM (E-[c(RGDfk)2]); conjugate with 5 mol % E-[c(RGDfk)2], 2.6 mol % PTX; FIG. 16B
Protocol: The anti-angiogenesis activity of the conjugates was evaluated by the effect of the conjugates on the ability of HUVEC cells to form capillary-like tube structures.
The surface of 24-well plates was coated with Matrigel matrix (50 μl/well) (BD Biosciences, USA) on ice and was then allowed to polymerize at 37° C. for 30 minutes. HUVEC (3×10^4 cells) were challenged with the tested compounds, and were seeded on coated plates in the presence of complete EGM-2 medium. After 8 hours of incubation (37° C.; 5% CO2), wells were imaged using Nikon TE2000E inverted microscope integrated with Nikon DS5 cooled CCD camera by 4× objective, brightfield technique. During the tube formation assay endothelial cells directionally migrate to align, branch and form polygonal networks (i.e. tube like structures). The extent of capillary-like tube structures is inversely proportional to the anti-angiogenesis activity of the compounds.

[5] = test system: PANC02 murine pancreatic tumor cells; assay: Cell proliferation assay, PANC02; format: cell-based
Protocol: as §1, §2

HUVEC [6] = assay: Migration assay of HUVEC towards VEGF; format: cell-based, human; conditions: equivalent concentrations of 100 nM PTX; conjugate with 5 mol % E-[c(RGDfk)2], 2.6 mol % PTX; FIG. 14
Protocol: The anti-angiogenesis activity of the conjugates was evaluated by examining the effect of the conjugates on the ability of HUVEC to migrate toward the Vascular Endothelial Growth Factor (VEGF).
Cell migration assay was performed using modified 8 μm Boyden chambers Transwells® (Costar Inc., USA) coated with 10 μg/ml fibronectin HUVEC (15×10^4 cells/100 μl) were challenged with the tested compounds that were added to the upper chamber of the transwells for 2 hours. Following incubation, cells were allowed to migrate to the underside of the chamber for 4 hours in the presence or absence of VEGF (20 ng/ml) in the lower chamber. Cells were then fixed and stained (Hema 3 Stain System; Fisher Diagnostics, USA). The stained migrated cells were imaged using Nikon TE2000E inverted microscope integrated with Nikon DS5 cooled CCD camera by 10× objective, brightfield illumination. Migrated cells from the captured images per membrane were counted using NIH image software. Migration was normalized to the percent of migration toward VEGF of HUVEC which were not incubated with any compound. The extent of migration is inversely proportional to the anti-angiogenesis activity of the compounds.

[7] = Hydrodynamic diameter by Nanoparticle Tracking Analysis; format: physicochemical; conditions: PTX loading of 2.3 mol % and -E-c(RGDfk) loading of 5 mol %; PBS; FIG. 9C
Protocol: The mean hydrodynamic diameter of the PGA conjugates was evaluated using a real time particle analyzer (NanoSight LM20™) containing a solid-state, single mode laser diode (<20 mW, 655 nm) configured to launch a finely focused beam through a 500 μl sample chamber. The tested conjugate was dissolved in PBS to a final concentrations of 9.9 mg/ml. The samples were then injected into the chamber by syringe and allowed to equilibrate to a unit temperature (23° C.) for 30 seconds. The particles dynamics were visualized at 30 frames per second (fps) for 60 seconds at 640×480 resolution by the device CCD camera. The paths the particles take under Brownian motion over time were analyzed using Nanoparticle Tracking Analysis (NTA) software. […] Each sample was measured three times in triplicates, and the results represent the mean diameter.

[8] = HUVEC, 72 hours, bis-cyclic RGD compounds (X = 2), NA = did not reach IC50 in the concentrations used, 'a -- b' = bell-shaped curve, read-out: IC50 (nM) of PGA- PTX-E-[c(RGDfk)2] (SEQ ID NO: 18) 2.6 mol % PTX, 5 mol % RGD
[9] = HUVEC proliferation, nM PTX, FIG. 13A (5 mol % E-[c(RGDfk)2], 2.6 mol % PTX) and FIG. 13B (monocyclic), read-out: IC50, bell shaped effect, higher value
[10] = HUVEC proliferation, nM PTX, FIG. 13A (5 mol % E-[c(RGDfk)2], 2.6 mol % PTX) and FIG. 13B (monocyclic), read-out: IC50, bell shaped effect, lower value

T1 sequence (P06756 31-889 limits assumed): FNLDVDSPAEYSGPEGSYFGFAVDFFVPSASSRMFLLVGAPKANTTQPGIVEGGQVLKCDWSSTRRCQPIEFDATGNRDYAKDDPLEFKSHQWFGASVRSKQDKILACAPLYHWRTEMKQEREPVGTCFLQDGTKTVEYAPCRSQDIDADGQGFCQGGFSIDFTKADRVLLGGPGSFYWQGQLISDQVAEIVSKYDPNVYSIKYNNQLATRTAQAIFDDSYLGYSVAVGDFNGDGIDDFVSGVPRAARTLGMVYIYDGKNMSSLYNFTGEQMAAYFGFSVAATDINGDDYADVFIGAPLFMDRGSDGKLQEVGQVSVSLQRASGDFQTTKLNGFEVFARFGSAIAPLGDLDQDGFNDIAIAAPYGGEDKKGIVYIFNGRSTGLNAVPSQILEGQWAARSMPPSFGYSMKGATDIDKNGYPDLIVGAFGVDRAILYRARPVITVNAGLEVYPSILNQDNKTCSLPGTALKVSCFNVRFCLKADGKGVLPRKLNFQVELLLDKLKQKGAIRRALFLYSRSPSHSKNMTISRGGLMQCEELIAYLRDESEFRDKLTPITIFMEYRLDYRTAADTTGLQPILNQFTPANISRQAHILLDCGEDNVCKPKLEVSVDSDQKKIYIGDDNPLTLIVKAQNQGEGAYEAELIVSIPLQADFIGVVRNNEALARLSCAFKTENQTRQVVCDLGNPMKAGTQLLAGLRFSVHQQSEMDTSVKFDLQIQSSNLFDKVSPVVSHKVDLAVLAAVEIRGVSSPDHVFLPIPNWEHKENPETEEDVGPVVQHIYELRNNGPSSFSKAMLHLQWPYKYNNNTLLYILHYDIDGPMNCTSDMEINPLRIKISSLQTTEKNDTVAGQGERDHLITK
T1 sequence (P06756 891-1048 limits assumed): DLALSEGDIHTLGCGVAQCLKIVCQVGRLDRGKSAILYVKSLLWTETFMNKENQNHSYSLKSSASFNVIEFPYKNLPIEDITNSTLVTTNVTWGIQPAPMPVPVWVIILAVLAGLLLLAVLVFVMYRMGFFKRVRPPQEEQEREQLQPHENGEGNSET
T1 sequence (P05106 27-788): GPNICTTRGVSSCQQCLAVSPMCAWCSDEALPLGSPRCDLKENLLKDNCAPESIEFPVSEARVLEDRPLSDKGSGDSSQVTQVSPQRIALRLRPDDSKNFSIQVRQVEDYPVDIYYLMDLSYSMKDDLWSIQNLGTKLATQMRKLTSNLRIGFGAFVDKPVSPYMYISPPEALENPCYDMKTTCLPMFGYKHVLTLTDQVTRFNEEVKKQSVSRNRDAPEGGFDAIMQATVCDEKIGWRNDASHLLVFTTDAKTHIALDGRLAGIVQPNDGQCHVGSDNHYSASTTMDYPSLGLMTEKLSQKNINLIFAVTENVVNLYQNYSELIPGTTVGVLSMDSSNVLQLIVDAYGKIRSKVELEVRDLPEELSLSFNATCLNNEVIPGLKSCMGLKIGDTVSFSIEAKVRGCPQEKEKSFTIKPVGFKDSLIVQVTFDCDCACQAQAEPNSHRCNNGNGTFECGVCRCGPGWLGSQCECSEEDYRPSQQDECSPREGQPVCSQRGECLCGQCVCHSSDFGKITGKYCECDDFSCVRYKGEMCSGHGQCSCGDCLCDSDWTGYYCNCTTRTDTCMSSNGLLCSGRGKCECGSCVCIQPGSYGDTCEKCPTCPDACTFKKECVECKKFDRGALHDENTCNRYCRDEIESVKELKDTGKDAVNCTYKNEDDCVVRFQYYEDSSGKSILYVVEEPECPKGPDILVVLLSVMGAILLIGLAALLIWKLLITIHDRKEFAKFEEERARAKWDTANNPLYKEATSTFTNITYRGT

Substance: PGA-E-[c(RGDfk)2]
- accumulation of the conjugate at the tumor site [1]: able to accumulate in the tumor tissue
- effect on HUVEC proliferation (HUVEC [2]; FIG. 12A): only at high concentrations
- IC50 (HUVEC [2]; [8]): 2900 nM
- IC50 (HUVEC [2]; HUVEC, 72 hours, bis-cyclic RGD compounds (X = 2), NA = did not reach IC50 in the concentrations used, 'a -- b' = bell-shaped curve, read-out: IC50 (nM) of PGA- PTX-E-[c(RGDfk)2] (SEQ ID NO: 18) 5 mol % PTX, 3.9 mol % RGD): 7000 nM

Substance: PGA-E-[c(RGDfk)2]-OG
- time at which conjugate-cell adherence was first observed (αvβ3 integrin receptor; ImageStream 100 imaging flow cytometer): 10 min
- extent of binding / uptake by HUVEC (αvβ3 integrin receptor; OG fluorescence, FIGS. 11B, 11C): higher uptake
- accumulation of the conjugate at the tumor site [1]: high accumulation

Substance: PGA-Copolymer -E-c(RGDfk)2-Paclitaxel [PGA-PTX-E-[c(RGDfk)2]]
- adhesion inhibition compared with the monocyclic conjugate PGA-PTX-E-c(RGDfk) (HUVEC [3]; both loadings of the bis-cyclic conjugate): inhibited the adhesion more effectively than the monocyclic RGDfk peptide conjugate
- adhesion inhibition compared with the other loading (HUVEC [3]; conjugate with 3.9 mol % E-[c(RGDfk)2] and 5.5 mol % PTX versus conjugate with 5 mol % E-[c(RGDfk)2] and 2.6 mol % PTX): more effective than the second
- PTX release kinetics compared to the other conjugates (Cathepsin B; conjugate with 3.9 mol % E-[c(RGDfk)2], 5.5 mol % PTX, pH 6, 37° C.): slightly faster release kinetics
- PTX release compared with the conjugate of 2.6 mol % PTX, 5 mol % E-[c(RGDfk)2] (Cathepsin B; conjugate with 5.5 mol % PTX, 3.9 mol % E-[c(RGDfk)2], after 48 hours): greater
- inhibition of the formation of tubular structures of HUVEC (HUVEC [4]): about 40%
- IC50 ([5]; PANC02, 72 hours, bis-cyclic RGD compounds (X = 2), NA = did not reach IC50 in the concentrations used, read-out: IC50 (nM) of PGA- PTX-E-[c(RGDfk)2] (SEQ ID NO: 18) 5 mol % PTX, 3.9 mol % RGD): 650 nM
- IC50 ([5]; nM PTX, equivalent doses, FIG. 12C, read-out: IC50 of PANC02 proliferation): ~650 nM
- inhibition of the migration of HUVEC towards VEGF (HUVEC [6]): about 40%
- IC50 (HUVEC [2]; [9]): ~20 nM
- IC50 (HUVEC [2]; [10]): ~0.2 nM
- IC50 (HUVEC [2]; [8]): 25 nM

Substance: PGA-PTX-E-c(RGDfk)
- inhibition of HUVEC adhesion to fibrinogen (HUVEC [3]; equivalent concentrations of 50 μM RGD, FIG. 15): ~50%
- IC50 (HUVEC [2]; [9]): ~20 nM
- IC50 (HUVEC [2]; [10]): ~0.2 nM
- mean hydrodynamic diameter [7]: about 35 nm
